T1: RIG-I (Homo sapiens, UniProt O95786)
T1 construct: HEK293 cells overexpressing either the full length RIG-I; host or cells: HEK293; HCT116 also for the qRT-PCR validation
T1 sequence (O95786 1-925): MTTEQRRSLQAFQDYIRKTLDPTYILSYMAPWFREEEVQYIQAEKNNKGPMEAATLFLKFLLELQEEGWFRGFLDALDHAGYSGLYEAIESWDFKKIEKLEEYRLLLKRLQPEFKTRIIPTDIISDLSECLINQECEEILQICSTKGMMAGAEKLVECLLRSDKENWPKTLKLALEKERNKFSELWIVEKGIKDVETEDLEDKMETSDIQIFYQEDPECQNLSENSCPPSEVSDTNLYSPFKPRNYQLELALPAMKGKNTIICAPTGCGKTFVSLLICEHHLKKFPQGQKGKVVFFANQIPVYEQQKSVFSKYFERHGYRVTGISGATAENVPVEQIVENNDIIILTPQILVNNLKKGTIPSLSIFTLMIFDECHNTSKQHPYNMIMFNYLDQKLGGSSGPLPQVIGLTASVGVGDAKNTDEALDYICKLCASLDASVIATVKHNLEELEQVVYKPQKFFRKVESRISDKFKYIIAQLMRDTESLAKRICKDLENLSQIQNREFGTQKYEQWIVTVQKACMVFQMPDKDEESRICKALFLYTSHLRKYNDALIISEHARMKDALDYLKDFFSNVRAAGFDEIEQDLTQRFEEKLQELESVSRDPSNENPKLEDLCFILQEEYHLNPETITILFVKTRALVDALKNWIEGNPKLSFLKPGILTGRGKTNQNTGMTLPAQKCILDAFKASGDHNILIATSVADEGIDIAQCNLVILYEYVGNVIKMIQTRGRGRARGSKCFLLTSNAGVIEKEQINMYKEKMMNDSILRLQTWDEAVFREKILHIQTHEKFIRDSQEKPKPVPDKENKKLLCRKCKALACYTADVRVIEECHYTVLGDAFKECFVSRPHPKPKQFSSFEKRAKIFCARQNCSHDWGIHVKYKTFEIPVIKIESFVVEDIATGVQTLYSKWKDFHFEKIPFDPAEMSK

B1: M5: rbRNA, RIG-I agonist, 81 nucleotides, SEQ ID NO:26 (nucleic acid)
chain: GACGAAGACCACAAAACCAGATAAAAAATTATTTTTTATCTGGTTTTGTGGTCTTCGTCTATAGTGAGTCGTATTAATTTC
modifications: listed as DNA, chemistry not given here

Assays:
RIG-I = molecular target: T1, RIG-I; assay: UV cross-linking with quantitative real-time PCR (CLIP-PCR) of RIG-I complexes; format: binding
Method: Graphic representation indicating the distribution of non-coding and repetitive RNA molecules bound to RIG-I following exposure to IR as compared to total irradiated cellular RNA. Transcripts were mapped to reference genomes using RepeatMasker. See Methods for further details. […] Cells were UV crosslinked at 150 mJ/cm^2 48 hours post-IR treatment prior to cell lysis. […] FIG. 29H show IFN-b levels in culture supernatant from ICR RIG-I^+/+ and primary MEFs 24 hours post-stimulation with the same set of synthetic U1 oligonucleotides used in (FIG. 29G) The amount of U1 synthetic oligonucleotides used in all stimulation experiments was 1 μg. P values were determined using unpaired Student's t-test. Error bars are SEM. ***P<0.005.
Technically, identification of RNAs was performed as follows: HEK293 cells were transiently transfected with 3×FLAG-tagged full-size RIG-I in pEF-BOS vector (Addgene; Cambridge, Mass.). Twenty-four hours post-transfection, cells were either mock-irradiated or exposed to IR (6 Gy). Forty-eight hours post-IR, cells were lysed with a modified lysis buffer (50 mM Tris-Cl pH 7.5, 0.15 M NaCl, 0.1% NP-40, 1.0% Triton X-100, 1 mM EDTA pH8.0, 1 mM EGTA pH8.0, 10% Glycerol, 2.5 mM MgCl2, 1 mM DTT, 0.1 mM ATP, and 1× Halt Protease Inhibitor) and incubated on ice for 1 hour. Cell lysates were separated from cell debris by centrifugation at 12,000 rpm at 4° C. Protein concentration was measured by BCA kit. Anti-FLAG monoclonal antibody was added to the cell lysate at a 1:500 dilution, and incubated overnight at 4° C. Protein G sepharose beads were added to the lysates and incubated for at least 2 hours at 4° C. Beads containing the antibody-RIG-I complexes were washed five times in wash buffer (50 mM Tris-Cl pH 7.5, 0.15 M NaCl, 1 mM MgCl2, 0.05% NP-40, 1 mM DTT) and proteins were eluted from the beads using a soft elution buffer (0.5% SDS, 0.1% Tween-20, 50 mM Tris pH 8.0) for 10 minutes at room temperature with vortexing every 2-3 minutes. Proteinase K was added to the eluates and incubated at 50° C. for 45 minutes. Trizol reagent was then added to the solution, and RNA bound to RIG-I was purified following manufacturer's protocol. RNA quality was analyzed using an Agilent Bioanalyzer 2100 with Pico Series II cartridges. RNA yield was measured using the Qubit RNA Broad Range kit. For qRT-PCR validation experiments of RIG-I pulled down RNA, UV cross-linking (2 doses at 150 mJ/cm^2) was performed on HEK293 and HCT116 overexpressing RIG-I prior to cell lysis. The same protocol for pulldown and RNA purification experiments was performed as described above.

MC38 tumors = assay: MC38 tumor growth after IR (20Gy) plus intratumoral RNA with jetPEI; format: in vivo, mouse; settings: in combination with jetPEI lipid and IR (20Gy); injected 1, 7 and 14 days post-IR
Method: To further test ability of delivered RNAs to affect tumor growth we irradiated MC38 tumors at 20Gy and injected irradiated tumors with stem-loop regions of U1 or U2 at 1, 7 and 14 dayspost-IR. Tumors were grown for 17 days post IR and each 3rd day were measured as described in. As is shown in FIG. 40, injection of stem-loop structures of U1 in combination with jetPEI lipid and IR led to the 2-fold suppression of tumor growth as compared with IR only.
To further test ability of delivered synthetic RNAs (M5 and M8) to affect tumor growth we irradiated MC38 tumors at 20Gy and injected irradiated tumors 1, 7 and 14 dayspost-IR. Tumors were grown for 17 days post IR and each 3rd day were measured as described in. Injection of synthetic RNAs, M5 and M8, in combination with jetPEI lipid and IR led to the 2-fold suppression of tumor growth as compared with IR only.

| Molecule | enrichment in RIG-I: RNA complexes in irradiated samples (RIG-I; HCT116 cells overexpressing RIG-I) | enrichment in purified RIG-I complexes, irradiated vs non-irradiated (RIG-I; HEK293 expressing WT RIG-I, IR 6 Gy) [fold] | binding to RIG-I (RIG-I; RIG-I: RNA complexes isolated from HCT116 cells overexpressing RIG-I) | suppression of tumor growth as compared with IR only (MC38 tumors) [fold] |
| --- | --- | --- | --- | --- |
| U2: snRNA, SEQ ID NO:21 | significant enrichment | 6 | – | – |
| B1 | – | – | binds | 2 |

— patent publication US20170268001A1, “RNAS WITH TUMOR RADIO/CHEMO-SENSITIZING AND IMMUNOMODULATORY PROPERTIES AND METHODS OF THEIR PREPARATION AND APPLICATION” (THE UNIVERSITY OF CHICAGO, priority 2016, published 2017)
